According to ChEMBL document CHEMBL1909046, “DrugMatrix in vitro pharmacology data”:

What was measured:
[1] = DRUGMATRIX: GABAA, Flunitrazepam, Central radioligand binding (ligand: [3H] Flunitrazepam); assay type: cell membranes, Rattus norvegicus, Wistar, Brain, Membrane; conditions: Not Active = under 50% inhibition at 10 µM
[2] = target: T1, Cholecystokinin receptor type A (Homo sapiens, UniProt P32238); assay type: cell membranes, Membrane; conditions: 1321-n1; note: in other assays of this panel Not Active means under 50% inhibition at 10 µM
T1 sequence (P32238 whole entry): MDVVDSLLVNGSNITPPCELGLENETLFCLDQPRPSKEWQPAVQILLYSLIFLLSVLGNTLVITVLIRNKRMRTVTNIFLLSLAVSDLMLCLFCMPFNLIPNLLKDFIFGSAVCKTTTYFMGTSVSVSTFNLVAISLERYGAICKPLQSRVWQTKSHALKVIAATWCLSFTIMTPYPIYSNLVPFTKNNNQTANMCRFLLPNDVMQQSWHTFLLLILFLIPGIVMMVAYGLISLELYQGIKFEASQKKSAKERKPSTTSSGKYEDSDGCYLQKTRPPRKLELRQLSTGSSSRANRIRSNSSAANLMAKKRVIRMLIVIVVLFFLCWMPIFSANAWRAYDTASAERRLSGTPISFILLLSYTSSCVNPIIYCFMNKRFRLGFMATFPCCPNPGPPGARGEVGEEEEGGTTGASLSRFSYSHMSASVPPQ

Cathepsin G = target: T2, Cathepsin G (Homo sapiens, UniProt P08311); assay type: tissue-based; conditions: neutrophil;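 note: inhibition of Cathepsin G enzyme activity, tested on an AMC-conjugated peptide substrate; in other assays of this panel Not Active means under 50% inhibition at 10 µM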
T2 sequence (P08311 whole entry): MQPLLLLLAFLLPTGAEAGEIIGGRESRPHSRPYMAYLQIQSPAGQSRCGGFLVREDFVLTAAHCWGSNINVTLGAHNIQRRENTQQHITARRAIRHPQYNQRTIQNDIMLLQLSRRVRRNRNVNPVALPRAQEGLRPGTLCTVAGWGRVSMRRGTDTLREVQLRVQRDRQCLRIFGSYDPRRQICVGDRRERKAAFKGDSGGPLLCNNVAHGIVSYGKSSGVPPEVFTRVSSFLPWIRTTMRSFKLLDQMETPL

Melanocortin receptor 3 = Melanocortin receptor 3 (Homo sapiens, UniProt P41968); assay type: cell membranes, HEK293, Membrane; conditions: hek293; note: in other assays of this panel Not Active means under 50% inhibition at 10 µM
[3] = DRUGMATRIX: Glutamate, NMDA, Agonism radioligand binding (ligand: [3H] CGP-39653); assay type: cell membranes, Rattus norvegicus, Wistar, Cerebral cortex, Membrane; conditions: Not Active = under 50% inhibition at 10 µM
[4] = DRUGMATRIX: Phosphodiesterase PDE4 enzyme inhibition (substrate: [3H]cAMP + cAMP); conditions: u-937, Not Active = under 50% inhibition at 10 µM
[5] = target: C-C chemokine receptor type 2 (Homo sapiens, UniProt P41597); assay type: cell membranes, CHO-K1, Membrane; conditions: cho-k1; note: in other assays of this panel Not Active means under 50% inhibition at 10 µM
[6] = target: Beta-3 adrenergic receptor (Homo sapiens, UniProt P13945); experiment: DRUGMATRIX: Adrenergic beta3 radioligand binding (ligand: [125I] Cyanopindolol); assay type: cell membranes, HEK293, Membrane; conditions: Not Active = under 50% inhibition at 10 µM
Beta-3 adrenergic receptor, sequence (P13945 whole entry): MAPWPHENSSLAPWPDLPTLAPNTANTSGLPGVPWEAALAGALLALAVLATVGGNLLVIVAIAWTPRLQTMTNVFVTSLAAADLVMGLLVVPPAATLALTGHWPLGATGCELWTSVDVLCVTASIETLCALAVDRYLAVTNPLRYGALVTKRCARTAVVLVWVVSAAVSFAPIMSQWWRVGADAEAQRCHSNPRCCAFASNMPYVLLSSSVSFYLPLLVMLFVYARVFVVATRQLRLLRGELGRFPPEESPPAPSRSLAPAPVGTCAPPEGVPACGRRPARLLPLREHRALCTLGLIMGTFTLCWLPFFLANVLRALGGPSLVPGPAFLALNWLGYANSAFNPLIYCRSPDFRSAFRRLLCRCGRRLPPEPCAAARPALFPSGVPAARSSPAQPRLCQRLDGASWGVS

Melanocortin receptor 3, sequence (P41968 whole entry): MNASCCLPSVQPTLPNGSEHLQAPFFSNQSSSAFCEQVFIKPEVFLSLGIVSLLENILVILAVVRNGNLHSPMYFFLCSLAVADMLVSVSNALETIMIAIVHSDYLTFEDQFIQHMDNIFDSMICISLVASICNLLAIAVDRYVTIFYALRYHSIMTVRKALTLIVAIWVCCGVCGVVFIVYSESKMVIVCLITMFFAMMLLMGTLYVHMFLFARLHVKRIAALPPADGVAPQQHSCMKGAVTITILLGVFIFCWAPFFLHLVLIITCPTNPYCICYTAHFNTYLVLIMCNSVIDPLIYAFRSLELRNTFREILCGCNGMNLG
C-C chemokine receptor type 2, sequence (P41597 whole entry): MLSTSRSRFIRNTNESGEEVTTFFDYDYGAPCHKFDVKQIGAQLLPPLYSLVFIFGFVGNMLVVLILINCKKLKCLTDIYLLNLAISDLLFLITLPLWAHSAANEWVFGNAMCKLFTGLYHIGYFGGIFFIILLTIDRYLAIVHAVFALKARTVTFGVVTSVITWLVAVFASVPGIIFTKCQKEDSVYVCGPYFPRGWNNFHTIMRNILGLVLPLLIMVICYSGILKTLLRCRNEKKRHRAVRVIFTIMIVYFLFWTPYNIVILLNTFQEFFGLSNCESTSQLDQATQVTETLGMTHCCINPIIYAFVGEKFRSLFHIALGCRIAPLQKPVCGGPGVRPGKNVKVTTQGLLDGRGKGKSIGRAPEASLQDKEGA

Compound	IC50 [1]	Ki [1]	IC50 [2]	IC50 (Cathepsin G)	IC50 (Melanocortin receptor 3)	IC50 [3]	Ki [3]	IC50 [4]	Ki [4]	IC50 [5]	IC50 ([6]; hek293)	IC50 ([4]; read-out: IC50) [µM]	IC50 ([6]; read-out: IC50) [µM]	Ki ([6]; read-out: Ki) [µM]
CN(C)C(=O)Oc1cc(OC(=O)N(C)C)cc(C(O)CNC(C)(C)C)c1 (stereo unspecified) [BAMBUTEROL]	Not Active	Not Active	Not Active	Not Active	Not Active	Not Active	Not Active	Not Active	Not Active	Not Active	Not Active	–	–	–
Nc1nc(N)nc(-c2cc(Cl)ccc2Cl)n1.O=C(O)/C=C\C(=O)O [IRSOGLADINE MALEATE]	Not Active	Not Active	Not Active	Not Active	Not Active	Not Active	Not Active	Not Active	Not Active	Not Active	Not Active	–	–	–
Cc1ccc(-c2cc(C(F)(F)F)nn2-c2ccc(S(N)(=O)=O)cc2)cc1 [CELECOXIB]	Not Active	Not Active	Not Active	Not Active	Not Active	Not Active	Not Active	–	–	Not Active	–	9.26	16.1	12.1
CCC1(c2ccc(N)cc2)CCC(=O)NC1=O (stereo unspecified) [AMINOGLUTETHIMIDE]	Not Active	Not Active	Not Active	Not Active	Not Active	Not Active	Not Active	Not Active	Not Active	Not Active	Not Active	–	–	–
Cc1ccc(/N=C/N(C)/C=N/c2ccc(C)cc2C)c(C)c1 [AMITRAZ]	Not Active	Not Active	Not Active	Not Active	Not Active	Not Active	Not Active	Not Active	Not Active	Not Active	Not Active	–	–	–
C[C@H](CS)C(=O)N1CCC[C@H]1C(=O)O [CAPTOPRIL]	Not Active	Not Active	Not Active	Not Active	Not Active	Not Active	Not Active	Not Active	Not Active	Not Active	Not Active	–	–	–
Clc1cccc(Cl)c1NC1=NCCN1 [CLONIDINE]	Not Active	Not Active	Not Active	Not Active	Not Active	Not Active	Not Active	Not Active	Not Active	Not Active	Not Active	–	–	–
CCCCN1CCCC[C@H]1C(=O)Nc1c(C)cccc1C [LEVOBUPIVACAINE]	Not Active	Not Active	Not Active	Not Active	Not Active	Not Active	Not Active	Not Active	Not Active	Not Active	Not Active	–	–	–
OC(Cn1cncn1)(Cn1cncn1)c1ccc(F)cc1F [FLUCONAZOLE]	Not Active	Not Active	Not Active	Not Active	Not Active	Not Active	Not Active	Not Active	Not Active	Not Active	Not Active	–	–	–
CCCC1O[C@@H]2C[C@H]3[C@@H]4CCC5=CC(=O)C=C[C@]5(C)[C@H]4[C@@H](O)C[C@]3(C)[C@]2(C(=O)CO)O1 (stereo partly specified) [BUDESONIDE]	Not Active	Not Active	Not Active	Not Active	Not Active	Not Active	Not Active	Not Active	Not Active	Not Active	Not Active	–	–	–
Cc1cc(C2CCCCC2)n(O)c(=O)c1 [CICLOPIROX]	Not Active	Not Active	Not Active	Not Active	Not Active	Not Active	Not Active	Not Active	Not Active	Not Active	Not Active	–	–	–
